Laboratory results as given in PubChem BioAssay AID328 (DTP/NCI, 2004).
Where “and” joins values, the source holds several entries; their conditions need not be identical. Identical values can stand only once. Inconclusive results and toxic doses are left out. Rule for the calls: active = survival T/C of 150% or more; inactive = T/C below 125% in these data.

Test system: BDF1 mice, P388 leukemia ip, median survival T/C
Experiment: NCI In Vivo Anticancer Drug Screen. Data for tumor model P388 Leukemia (intraperitoneal) in B6D2F1 (BDF1) mice
Conditions: endpoint: median survival time, higher = longer survival
Procedure, shortened: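 Vehicle-dosed animals serve as the reference; survival of compound-dosed, tumour-implanted mice is divided by it.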

Measured: T/C

COC(C(=O)C(O)C(C)O)C1Cc2cc3cc(OC4CC(OC(C)=O)C(OC5CC(O)C(OC)C(C)O5)C(C)O4)cc(O)c3c(O)c2C(=O)C1OC1CC(OC2CC(OC3CC(C)(O)C(OC(=O)C(C)C)C(C)O3)C(O)C(C)O2)C(O)C(C)O1 (stereo unspecified)
inactive: dose: 0.05 mg/kg/injection, schedule: Q01DX010 (ip), vehicle: saline 113 % of control | dose: 0.1 mg/kg/injection, schedule: Q01DX010 (ip), vehicle: saline 90 % of control | dose: 0.25 mg/kg/injection, schedule: Q01DX009 (ip), vehicle: saline 111 % of control | dose: 0.37 mg/kg/injection, schedule: Q01DX009 (sc), vehicle: carboxymethylcellulose (CMC) 100 % of control | dose: 0.5 mg/kg/injection, schedule: Q01DX001 (ip), vehicle: other 104 % of control | dose: 0.5 mg/kg/injection, schedule: Q01DX009 (ip), vehicle: saline 94 % of control and 100 % of control | dose: 0.75 mg/kg/injection, schedule: Q01DX009 (sc), vehicle: carboxymethylcellulose (CMC) 100 % of control | dose: 1.0 mg/kg/injection, schedule: Q01DX001 (ip), vehicle: other 108 % of control | dose: 1.0 mg/kg/injection, schedule: Q01DX001 (sc), vehicle: carboxymethylcellulose (CMC) 100 % of control | dose: 1.0 mg/kg/injection, schedule: Q01DX009 (ip), vehicle: saline 111 % of control and 100 % of control | dose: 1.0 mg/kg/injection, schedule: Q## X024 (ip), vehicle: carboxymethylcellulose (CMC) 110 % of control | dose: 1.5 mg/kg/injection, schedule: Q01DX009 (oral), vehicle: carboxymethylcellulose (CMC) 100 % of control | dose: 1.5 mg/kg/injection, schedule: Q01DX009 (sc), vehicle: carboxymethylcellulose (CMC) 104 % of control | dose: 2.0 mg/kg/injection, schedule: Q01DX001 (ip), vehicle: other 116 % of control | dose: 2.0 mg/kg/injection, schedule: Q01DX001 (ip), vehicle: saline 116 % of control | dose: 2.0 mg/kg/injection, schedule: Q01DX001 (sc), vehicle: carboxymethylcellulose (CMC) 100 % of control | dose: 2.0 mg/kg/injection, schedule: Q01DX009 (ip), vehicle: saline 111 % of control | dose: 2.0 mg/kg/injection, schedule: Q## X024 (ip), vehicle: carboxymethylcellulose (CMC) 90 % of control | dose: 3.0 mg/kg/injection, schedule: Q01DX009 (ip), vehicle: carboxymethylcellulose (CMC) 95 % of control | dose: 3.0 mg/kg/injection, schedule: Q01DX009 (oral), vehicle: carboxymethylcellulose (CMC) 90 % of control | dose: 3.0 mg/kg/injection, schedule: Q01DX009 (sc), vehicle: carboxymethylcellulose (CMC) 100 % of control | dose: 3.2 mg/kg/injection, schedule: Q01DX010 (ip), vehicle: saline 114 % of control | dose: 4.0 mg/kg/injection, schedule: Q01DX001 (ip), vehicle: carboxymethylcellulose (CMC) 120 % of control | dose: 4.0 mg/kg/injection, schedule: Q01DX001 (ip), vehicle: other 116 % of control | dose: 4.0 mg/kg/injection, schedule: Q01DX001 (oral), vehicle: carboxymethylcellulose (CMC) 90 % of control | dose: 4.0 mg/kg/injection, schedule: Q01DX001 (sc), vehicle: carboxymethylcellulose (CMC) 100 % of control | dose: 4.0 mg/kg/injection, schedule: Q## X024 (ip), vehicle: carboxymethylcellulose (CMC) 100 % of control | dose: 6.0 mg/kg/injection, schedule: Q01DX009 (oral), vehicle: carboxymethylcellulose (CMC) 90 % of control | dose: 8.0 mg/kg/injection, schedule: Q01DX001 (oral), vehicle: carboxymethylcellulose (CMC) 90 % of control | dose: 8.0 mg/kg/injection, schedule: Q01DX001 (sc), vehicle: carboxymethylcellulose (CMC) 109 % of control | dose: 12.0 mg/kg/injection, schedule: Q01DX009 (oral), vehicle: carboxymethylcellulose (CMC) 100 % of control | dose: 16.0 mg/kg/injection, schedule: Q01DX001 (oral), vehicle: carboxymethylcellulose (CMC) 100 % of control | dose: 32.0 mg/kg/injection, schedule: Q01DX001 (oral), vehicle: carboxymethylcellulose (CMC) 90 % of control | dose: 25.0 micrograms/kg/injection, schedule: Q01DX010 (ip), vehicle: saline 100 % of control | dose: 50.0 micrograms/kg/injection, schedule: Q01DX010 (ip), vehicle: saline 122 % of control | dose: 62.5 micrograms/kg/injection, schedule: Q01DX010 (ip), vehicle: saline 109 % of control | dose: 125.0 micrograms/kg/injection, schedule: Q01DX010 (ip), vehicle: saline 109 % of control
active: dose: 0.2 mg/kg/injection, schedule: Q01DX010 (ip), vehicle: saline 154 % of control | dose: 0.25 mg/kg/injection, schedule: Q01DX009 (ip), vehicle: other 150 % of control | dose: 0.25 mg/kg/injection, schedule: Q01DX010 (ip), vehicle: saline 154 % of control and 172 % of control | dose: 0.36 mg/kg/injection, schedule: Q01DX005 (ip), vehicle: carboxymethylcellulose (CMC) 155 % of control | dose: 0.37 mg/kg/injection, schedule: Q01DX009 (ip), vehicle: carboxymethylcellulose (CMC) 155 % of control | dose: 0.38 mg/kg/injection, schedule: Q01DX010 (ip), vehicle: saline 177 % of control | dose: 0.4 mg/kg/injection, schedule: Q01DX010 (ip), vehicle: saline 157 % of control and 172 % of control | dose: 0.5 mg/kg/injection, schedule: Q01DX009 (ip), vehicle: other 162 % of control | dose: 0.5 mg/kg/injection, schedule: Q01DX010 (ip), vehicle: saline 190 % of control and 213 % of control | dose: 0.75 mg/kg/injection, schedule: Q01DX005 (ip), vehicle: carboxymethylcellulose (CMC) 165 % of control | dose: 0.75 mg/kg/injection, schedule: Q01DX009 (ip), vehicle: carboxymethylcellulose (CMC) 190 % of control | dose: 0.75 mg/kg/injection, schedule: Q01DX010 (ip), vehicle: saline 218 % of control | dose: 1.0 mg/kg/injection, schedule: Q01DX009 (ip), vehicle: other 179 % of control | dose: 1.0 mg/kg/injection, schedule: Q01DX010 (ip), vehicle: saline 240 % of control and 227 % of control and 195 % of control | dose: 1.0 mg/kg/injection, schedule: Q## X003 (ip), vehicle: carboxymethylcellulose (CMC) 165 % of control | dose: 1.0 mg/kg/injection, schedule: Q## X008 (ip), vehicle: carboxymethylcellulose (CMC) 155 % of control | dose: 1.5 mg/kg/injection, schedule: Q01DX005 (ip), vehicle: carboxymethylcellulose (CMC) 215 % of control | dose: 1.5 mg/kg/injection, schedule: Q01DX009 (ip), vehicle: carboxymethylcellulose (CMC) 235 % of control | dose: 1.5 mg/kg/injection, schedule: Q01DX010 (ip), vehicle: saline 195 % of control and 218 % of control | dose: 1.6 mg/kg/injection, schedule: Q01DX010 (ip), vehicle: saline 161 % of control | dose: 2.0 mg/kg/injection, schedule: Q01DX010 (ip), vehicle: saline 227 % of control | dose: 2.0 mg/kg/injection, schedule: Q## X003 (ip), vehicle: carboxymethylcellulose (CMC) 150 % of control | dose: 3.0 mg/kg/injection, schedule: Q01DX005 (ip), vehicle: carboxymethylcellulose (CMC) 260 % of control | dose: 4.0 mg/kg/injection, schedule: Q01DX009 (ip), vehicle: other 208 % of control | dose: 4.0 mg/kg/injection, schedule: Q## X008 (ip), vehicle: carboxymethylcellulose (CMC) 155 % of control | dose: 200.0 micrograms/kg/injection, schedule: Q01DX010 (ip), vehicle: saline 154 % of control | dose: 400.0 micrograms/kg/injection, schedule: Q01DX010 (ip), vehicle: saline 154 % of control | dose: 500.0 micrograms/kg/injection, schedule: Q01DX010 (ip), vehicle: saline 209 % of control | dose: 800.0 micrograms/kg/injection, schedule: Q01DX010 (ip), vehicle: saline 181 % of control
